Structures are written as SMILES.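 Five compound concentrations were applied to cells in 96-well plates for 48 hours; endpoints were derived by simple linear interpolation of the resulting dose-response curve. GI50 is the concentration that inhibits growth by half.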 Active and inactive are the calls of the source. Rule as the data show it: active = GI50 up to about 1.1 µM and inactive = higher. Some results are limits rather than exact numbers.

These results are taken from ChEMBL document CHEMBL1201862, “PubChem BioAssay data set” (2004).

Common to all, as to assay: NCI anticancer screen, dose series, 48 h
The subject of test [1] is DMS-114.
In test [2] the test system is LXFL 529.
In test [3] the test system is SNB-78.
For test [4], the system named is HOP-18.
Test [5] relates to M19-MEL.
Test [6] relates to DLD-1.
The subject of test [7] is DMS-273.
Test [8] concerns XF498.
For test [9], the system named is RXF 631.

With `CC(=O)N1[C@H](C(=O)O)CS[C@H]1c1ccncc1`, the GI50 in test [1], in test [2], in [3], in test [4], in test [5] and in test [6] was > 100 µM (inactive) throughout.

Take `N[C@H](C(=O)O)[C@@H]1CC(Cl)=NO1` [ACIVICIN]: the GI50 was 5.53 µM (inactive) in [1]; 2.33 µM (inactive) in [7]; 23.8 µM (inactive) in [8]; 4.25 µM (inactive) in test [3]; 37.9 µM (inactive) in [4]; 1.23 µM (inactive) in test [6].

As to `COc1cc(/C=C/C(=O)Oc2ccc(NC(C)=O)cc2)ccc1C(=O)O/C=C/c1ccccc1`, the GI50 in [1], in test [7], in test [8], in [3], in [4] and in [5] was > 100 µM (inactive) throughout. The GI50 in test [6] is > 100 µM (inactive).

For the molecule `NC(=O)/C(=N\NC(=O)c1cc2ccccc2cc1O)C1C(=O)N(c2ccccc2)N=C1N` (stereo not drawn), the GI50 in test [1] was 20.4 µM (inactive); in test [8] it was 37.6 µM (inactive); in [9] it was 37.3 µM (inactive); in test [2], 59.3 µM (inactive); in test [3], 69.8 µM (inactive); in test [4], 17.5 µM (inactive). Further, the GI50 is 30.6 µM (inactive) in test [5] and 34 µM (inactive) in test [6].

Regarding `CCOC(=O)Cc1ccc2c(c1O)C(=O)c1c(ccc(CC(=O)OCC)c1O)C2=O`, the GI50 was > 100 µM (inactive) in test [1]; > 100 µM (inactive) in test [7]; > 100 µM (inactive) in test [8]; > 100 µM (inactive) in test [2]; > 100 µM (inactive) in [3]; 28.4 µM (inactive) in [4]. The GI50 in [5] and in test [6] was > 100 µM (inactive) throughout.

On to `O=C(Nc1cc([N+](=O)[O-])cc([N+](=O)[O-])c1)OC1C2CCC1C1OC1C2` (stereo not drawn), for which the GI50 in test [1] was 30.5 µM (inactive); in [3], > 50 µM (inactive); in [5], > 50 µM (inactive); in test [6], > 50 µM (inactive).

Take `CNC=O`: the GI50 in test [1] was > 5160 µM (inactive); in test [7], > 10000 µM (inactive); in test [8], > 9550 µM (inactive); in test [3], > 7830 µM (inactive); in [4] it was > 10000 µM (inactive); in test [5] it was > 10000 µM (inactive). The GI50 in test [6] is > 10000 µM (inactive).

On to `CCCCCC(C[N+]1(C)CCOCC1)C(=O)/C=C/c1ccccc1` (stereo not drawn), for which the GI50 in test [1] is 9.62 µM (inactive); in test [7], 2.91 µM (inactive); in [8], 14.4 µM (inactive); in test [2], 3.18 µM (inactive); in test [3], 14.1 µM (inactive); in test [4], 14.8 µM (inactive). The GI50 in test [5] was 14.6 µM (inactive); in test [6] it was 6.25 µM (inactive).

In the case of `O=C1Sc2sc(=S)sc2SC1c1ccccc1` (stereo not drawn), the GI50 is 34.3 µM (inactive) in [1]; > 100 µM (inactive) in test [7]; 45.2 µM (inactive) in [8]; 31.9 µM (inactive) in test [3]; 48.1 µM (inactive) in [4]; 60.4 µM (inactive) in [5]. Further, the GI50 in test [6] is 32.2 µM (inactive).

As to `O=C1C=CC(=C(c2ccc(O)cc2)c2ccc(O)cc2)C=C1` [AURIN], the GI50 in test [1] was 2.4 µM (inactive); in test [7] it was 6.78 µM (inactive); in test [8], 11.7 µM (inactive); in test [9], 15 µM (inactive); in [2] it was 3.18 µM (inactive); in test [3] it was 5.11 µM (inactive). Further, the GI50 is 16.4 µM (inactive) in test [4] and 10.3 µM (inactive) in test [6].

For the molecule `CN(C)C=[N+]=[N-]`, the GI50 in test [1], in test [7], in test [8], in test [2], in test [3] and in [4] was > 100 µM (inactive) throughout. For the same molecule, the GI50 in test [5] and in test [6] was > 100 µM (inactive) throughout.

With `CCOc1ccccc1C=C1c2ccccc2C(=O)c2ccccc21`, the GI50 was 3.42 µM (inactive) in test [1]; 0.535 µM (active) in test [7]; 6.98 µM (inactive) in test [2]; 5.75 µM (inactive) in [3]; 5.93 µM (inactive) in test [5]; 2.55 µM (inactive) in [6].

As to `Cc1nc([N+](=O)[O-])cn1CC(=N)N`, the GI50 in [1], in [7], in test [9], in test [2], in test [5] and in [6] was > 100 µM (inactive) throughout.

For `C=C(CN(C)C)C(=O)c1ccc(OC)cc1`, the GI50 in [1] is 3.7 µM (inactive); in test [7], 3.8 µM (inactive); in [8], 1.93 µM (inactive); in test [2] it was 1.69 µM (inactive); in [3], 2.36 µM (inactive); in test [4] it was 3.78 µM (inactive). In addition, the figures for the GI50 in [5] and in test [6] were 2.07 µM (inactive) and 0.427 µM (active), respectively.

For `CC(=O)OC1CCC2(C)C(CCC3C2CCC2(C)C(c4ccc(=O)oc4)C(OC(C)=O)CC32O)C1` (stereo not drawn), the GI50 in [7] is 0.0125 µM (active); in test [8], 0.0244 µM (active); in test [3], 0.0164 µM (active); in test [4] it was 0.0125 µM (active); in test [6], 0.0155 µM (active).

As for `CN(C)CCSc1cccc(-c2cc(-c3cccc(SCCN(C)C)c3)nc(SCCN(C)C)n2)c1`, the GI50 in test [2] was 2.02 µM (inactive); in test [3], 2.42 µM (inactive); in test [4] it was < 0.01 µM (active); in [6] it was 12.9 µM (inactive).

In the case of `O=C(Cl)c1cc([N+](=O)[O-])cc([N+](=O)[O-])c1`, the GI50 in test [1], in test [7], in test [8], in test [2], in test [3] and in test [5] was > 100 µM (inactive) in each case. In addition, the GI50 in [6] was > 100 µM (inactive).

For the molecule `O=P1(NCCCl)OCCC(OO)N1CCCl` (stereo not drawn), the GI50 in test [1] is 31.6 µM (inactive); in [7], 47.3 µM (inactive); in test [3] it was 34.2 µM (inactive); in test [4], 39.9 µM (inactive); in test [5], 34.8 µM (inactive); in test [6] it was 21.2 µM (inactive).

Turning to `O=C1/C(=C/c2ccc(Cl)cc2)CCC1CN1CCOCC1` (stereo not drawn), the GI50 in [1] was 22.8 µM (inactive); in test [7], 3.06 µM (inactive); in test [8] it was 2.55 µM (inactive); in [9], 8.36 µM (inactive); in [2], 2.58 µM (inactive); in test [3], 12.5 µM (inactive). For the same molecule, the GI50 was 13.9 µM (inactive) in test [4] and 2.52 µM (inactive) in test [6].

For `Cc1ccc(S(=O)(=O)OCOS(=O)(=O)c2ccc(C)cc2)cc1`, the GI50 in [1] is > 100 µM (inactive); in [7], > 100 µM (inactive); in test [2], > 100 µM (inactive); in [3], > 10 µM (inactive); in test [4] it was > 100 µM (inactive); in [5], > 100 µM (inactive). Besides, in test [6], the GI50 is > 100 µM (inactive).

As to `COc1cccc(NC(=O)CC(=O)N2N=C(N3c4ccccc4Sc4ccccc43)CC2c2ccccc2)c1` (stereo not drawn), the GI50 was > 100 µM (inactive) in test [1]; > 100 µM (inactive) in [8]; > 100 µM (inactive) in test [2]; > 100 µM (inactive) in [3]; 9.48 µM (inactive) in [4]; > 100 µM (inactive) in test [5]. In [6], the GI50 was > 100 µM (inactive).

For `CCOC(=O)C(C)c1c(C(=O)c2ccc(C)nc2)c2ccccc2n1C` (stereo not drawn), the GI50 in test [1] is > 100 µM (inactive); in test [7], > 100 µM (inactive); in test [8] it was 83 µM (inactive); in test [9], > 100 µM (inactive); in test [2], > 100 µM (inactive); in test [3] it was > 100 µM (inactive). Also, the GI50 in test [5] and in test [6] was > 100 µM (inactive) in each case.

Turning to `CCOC(=O)C1=C(NC)OC/C1=N\NC(=O)c1ccccc1O`, the GI50 in test [1] was 20.7 µM (inactive); in test [7], 23.1 µM (inactive); in [8] it was 56.4 µM (inactive); in [2], 39.8 µM (inactive); in test [3], 96.6 µM (inactive); in [4], 14.8 µM (inactive). Besides, the values for the GI50 in [5] and in [6] were 29.9 µM (inactive) and 17.6 µM (inactive), respectively.

Turning to `COc1ccc(OC(=O)CC2Cc3cc(OC)c(OC)c(OC)c3-c3ccc(SC)c(=O)cc32)cc1` (stereo not drawn), the GI50 is 0.348 µM (active) in [1]; 0.102 µM (active) in test [7]; 0.258 µM (active) in test [8]; 0.281 µM (active) in [9]; 0.217 µM (active) in test [2]; 5.74 µM (inactive) in [5]. The GI50 in test [6] is 0.344 µM (active).

Regarding `CSC(SC)=C1Sc2cccc(Cl)c2S1`, the GI50 in test [1] was 26.4 µM (inactive); in test [7], 46.2 µM (inactive); in test [8] it was 29.9 µM (inactive); in test [2], 69.8 µM (inactive); in [3], > 100 µM (inactive); in test [4], > 100 µM (inactive). Moreover, the GI50 was 43.5 µM (inactive) in test [5] and 45.2 µM (inactive) in [6].

In the case of `CCOC(=O)N1CCc2cc(OC)c(OC)cc2/C1=C/c1ccc(OC)c(OC)c1`, the GI50 is 40 µM (inactive) in [1]; 49.2 µM (inactive) in [7]; 30 µM (inactive) in test [8]; 34.6 µM (inactive) in [2]; 38 µM (inactive) in test [3]; > 100 µM (inactive) in test [4]. Further, the GI50 in test [5] was 45.9 µM (inactive); in [6], 48.6 µM (inactive).

Take `COc1ccccc1NC(=O)CC(=O)N1N=C(C)C(/N=N/c2ccc(S(N)(=O)=O)cc2)C1=O` (stereo not drawn): the GI50 in test [1], in test [7], in test [8], in test [2], in test [3] and in test [4] was > 100 µM (inactive) each time. Further, the GI50 in test [5] and in [6] was > 100 µM (inactive) each time.
